Assay results from patent EP2604600A1, “Isatin derivatives and their use in therapy” (priority 2011, dated 2013).
Values after ≈ are worked out from the molar mass of the structure shown. Read-outs that look alike come from different tables or passages of the source.

Key:
M. tuberculosis H37Rv [1] = assay: Resazurin MIC assay, pan-sensitive strain; type: cell-based; conditions: Mycobacterium tuberculosis, 48 h
M. tuberculosis H37Rv [2] = assay: MBC assay with H37Rv; type: cell-based; conditions: Mycobacterium tuberculosis, 504 h; performed with H37Rv; concentration that inhibits ≥ 99.9% of the initial bacterial inoculum; 3 weeks on 7H10 agar at 37°C
Protocol: The MBC assay with H37Rv was performed as an adjunct to the MIC assay and was used to determine the concentration of drug that is lethal to the target bacterium in vitro. A small aliquot (i.e., 10 µl) was removed from appropriate dilutions in the 96-well plate used to determine the MIC value with subsequent streaking on 7H10 agar plates. Five wells were selected, representing the well yielding the MIC value and 2 wells above and below the well that yielded the MIC value. After 3 weeks of incubation at 37°C, the agar plates were inspected for the presence or absence of growth. The MBC value is the concentration in µg/ml that inhibits ≥ 99.9% of the initial bacterial inoculum. Antimicrobials are usually regarded as bactericidal if the MBC is no more than four times the MIC. while the bacteriostatic agents have MIC values that are much lower than the MBC.

[3] = Precipitation noted during the MIC assay; type: physicochemical; conditions: observed in the MIC assay plates, 7H9 medium
Protocol: Stock solutions were prepared at 3.2 mg/ml which were then diluted as indicated below: 1. 20 µl of the 3.2 mg/ml stock of the test compound were added to a 96-well microtiter plate. 2. 2-fold dilutions were made by the addition of 20 µl of diluent.
3. Each dilution was further diluted 1:10 in sterile water (10 µl of dilution to 90 µl of sterile water). Note: The additional 10-fold dilution in water is required when DMSO is used as solvent to minimize toxicity to the bacteria. For uniformity in the assay procedure, this dilution step was used even if water or other solvents were used.
The following steps are followed in preparing the 96-wcll plates: • 1. 6.25 µl of each dilution were transferred to duplicate 96-well test plates. • 2. 93.75 µl of the cell suspension (∼ 10^4 bacteria) in 7H9 medium were added to the test plates. • 3. Positive, negative, sterility and resazurin controls were tested: • a. Positive controls include: appropriate antibiotics for each resistant strain and rifampicin and isoniazid for 113 7Rv • b. Negative controls include: • i. cell culture with solvent and water • i.i. cell culture only • c. Sterility controls include: • i. medium only • ii. medium with solvent and water • d. […] This control plate is needed to verify whether the compound reacts with resazurin that could possibly elicit fluorescence. • 4. […]

[4] = Table 3, standard test strain H37Rv, read-out: MIC Value (µg/ml) H37Rv*
[5] = H37RV, Table 2, Resazurin MIC assay, […], read-out: MIC H37Rv

SMILES | MIC (M. tuberculosis H37Rv [1]; [4]) [µg/mL] | MIC (M. tuberculosis H37Rv [1]; [5]) [µg/mL] | MBC (M. tuberculosis H37Rv [2]) [µg/mL] | Comments (precipitation) [3]
O=C1Nc2ccc(Cl)cc2C1=NNC(=O)c1ccncc1 [Compound 3a] | 1.25 (≈ 4.16 µM) | 1.25 (≈ 4.16 µM) | 1.25 (≈ 4.16 µM) | Precipitation observed at 10 µg/ml
O=C1Nc2ccc(F)cc2C1=NNC(=O)c1ccncc1 [Compound 3b, reference compound] | – | 10 (≈ 35.2 µM) | – | –
O=C1Nc2ccc([N+](=O)[O-])cc2C1=NNC(=O)c1ccncc1 [Compound 3c] | 0.156 (≈ 0.501 µM) | 0.156 (≈ 0.501 µM) | 0.31 (≈ 0.996 µM) | –
O=C1Nc2ccc(F)cc2C1=NNC(=O)c1ccc([N+](=O)[O-])o1 [Compound 3d] | – | 5 (≈ 15.7 µM) | – | –
O=C1Nc2ccc(OC(F)(F)F)cc2C1=NNC(=O)c1ccc([N+](=O)[O-])o1 [Compound 3e] | 2.5 (≈ 6.51 µM) | 2.5 (≈ 6.51 µM) | 2.5 (≈ 6.51 µM) | –
O=C(NN=C1C(=O)N(c2ccccc2)c2ccccc21)c1ccc([N+](=O)[O-])o1 [Compound 3f] | – | 5 (≈ 13.3 µM) | – | –
O=C(NN=C1C(=O)N(Cc2ccccc2)c2ccccc21)c1ccc([N+](=O)[O-])o1 [Compound 3g] | 0.156 (≈ 0.4 µM) | 0.156 (≈ 0.4 µM) | 0.156 (≈ 0.4 µM) | Precipitation observed at 10 µg/ml
O=C(NN=C1C(=O)N(Cc2ccccc2)c2ccc(Cl)cc21)c1ccc([N+](=O)[O-])o1 [Compound 3h] | – | 0.312 (≈ 0.734 µM) | – | –
O=C(NN=C1C(=O)N(Cc2ccccc2)c2ccc(F)cc21)c1ccc([N+](=O)[O-])o1 [Compound 3i] | – | 0.156 (≈ 0.382 µM) | – | –
Cc1ccc2c(c1)C(=NNC(=O)c1ccc([N+](=O)[O-])o1)C(=O)N2Cc1ccccc1 [Compound 3j] | – | 1.25 (≈ 3.09 µM) | – | –
NNC(=O)c1ccncc1 [Isoniazid, reference compound] | 0.063 (≈ 0.459 µM) | 0.063 (≈ 0.459 µM) | – | –
CO[C@H]1/C=C/O[C@@]2(C)Oc3c(C)c(O)c4c(O)c(c(/C=N/N5CCN(C)CC5)c(O)c4c3C2=O)NC(=O)/C(C)=C\C=C\[C@H](C)[C@H](O)[C@@H](C)[C@@H](O)[C@@H](C)[C@H](OC(C)=O)[C@@H]1C [Rifampin, reference compound] | 0.0125 (≈ 0.0152 µM) | 0.0031 (≈ 0.00377 µM) | – | –
